From ChEMBL document CHEMBL5108002, “Design, synthesis, and biological evaluation of novel 7-substituted 10,11-methylenedioxy-camptothecin derivatives against drug-resistant small-cell lung cancer in vitro and in vivo” (Eur J Med Chem, 2022)
Activity calls are given as the source filed them. The calls are words filed in the database; no cut-off is given here.

How the values were obtained:
[1] = test system: NCI-H446; experiment: Induction of apoptosis in human NCI-H446 cells assessed as dead cells at 1 nM incubated for 24 hrs by AnnexinV-FITC/PI staining based flow cytometry analysis (reference value: 0.22 %); assay type: functional
[2] = test system: NCI-H446; experiment: Induction of apoptosis in human NCI-H446 cells assessed as inhibition of Bcl-1 protein expression at 0.1 to 100 nM incubated for 24 hrs by Western blot analysis; assay type: functional, cell-based; details: dose 0.1-100 nM
[3] = test system: NCI-H69; experiment: Induction of apoptosis in human NCI-H69 cells assessed as reduction in Mcl-1 mRNA expression at 0.1 to 100 nM incubated for 24 hrs by RT-PCR analysis; assay type: functional, cell-based; details: dose 0.1-100 nM
[4] = test system: H69AR; experiment: Induction of apoptosis in human NCI-H69AR cells assessed as inhibition of XIAP protein expression at 0.1 to 100 nM incubated for 24 hrs by Western blot analysis; assay type: functional, cell-based; details: dose 0.1-100 nM
[5] = Toxicity in BALB/c nude mouse xenografted with Irinotecan-resistant human NCI-H446 cells assessed as reduction in body weight at 3 mg/kg, IG administered once a week and measured 3 times a week for 35 days; assay type: organism-based; details: in vivo, po, 840 h, time 35 day
[6] = test system: NCI-H446; experiment: Antitumor activity against Irinotecan-resistant human NCI-H446 cells xenografted in BALB/c nude mouse assessed as tumor weight at 3 mg/kg, IG administered once a week and measured 3 times a week for 35 days; assay type: functional; details: time 35 day
[7] = test system: H69AR; experiment: Induction of apoptosis in human NCI-H69AR cells assessed as inhibition of Bcl-2 protein expression at 0.1 to 100 nM incubated for 24 hrs by Western blot analysis; assay type: functional, cell-based; details: dose 0.1-100 nM
[8] = test system: NCI-H69; experiment: Induction of apoptosis in human NCI-H69 cells assessed as inhibition of Bcl-2 protein expression at 0.1 to 100 nM incubated for 24 hrs by Western blot analysis; assay type: functional, cell-based; details: dose 0.1-100 nM
[9] = Resistance index, ratio of IC50 for antiproliferative activity against Irinotecan-resistant human NCI-H446 cells to IC50 for antiproliferative activity against human NCI-H446 cells; assay type: functional
[10] = test system: NCI-H446; experiment: Antitumor activity against etoposide/cisplatin combination-resistant human NCI-H446 cells xenografted in BALB/c nude mouse assessed as tumor growth inhibition at 3 mg/kg, IG administered once a week and measured 3 times a week relative to control; assay type: functional; details: NCI-H446, po, read-out: TGI
[11] = test system: H69AR; experiment: Induction of apoptosis in human NCI-H69AR cells assessed as increase in cleaved-caspase 3 protein expression at 0.1 to 100 nM measured after 24 hrs by Western blot analysis; assay type: functional, cell-based; details: dose 0.1-100 nM
[12] = test system: NCI-H446; experiment: Induction of apoptosis in human NCI-H446 cells assessed as inhibition of XIAP protein expression incubated for 24 hrs by Western blot analysis; assay type: functional, cell-based; details: dose 0.1-100 nM

**Q.** Which results are given for `CC[C@@]1(O)C(=O)OCc2c1cc1n(c2=O)Cc2c-1nc1cc3c(cc1c2-c1ccoc1)OCO3`?
**A.** Activity [1]: 3.79%; inhibition [2]: Active; Activity [3]: Active; inhibition [4]: Active; Activity [5]: Non-Toxic; Activity [6]: 0.15 g; inhibition [7]: Active; inhibition [8]: Active; Ratio IC50 [9]: 0.64; inhibition in vivo at 3 mg/kg [10]: 84.5%; Activity [11]: Active; inhibition [12]: Active
